What was measured:
Guinea Grass = test: Test 3 postemergence weed control; type: in vivo, Panicum maximum; conditions: 32 g/ha, scale 0-100
Description: Seeds of crabgrass (Digitaria spp), guinea grass (Panicum maximum) and narrowleaf panicum (P. maximum) were planted in 15-cm plastic pots. The weeds were treated postemergence with compound I, formulated in a non-phytotoxic solvent, when the plants had 3 or more leaves and had tillered. The degree of weed control was visually rated 17 days after compound application (DAT). Control ratings were based on a scale of 0 to 100 where 0 = no effect, 20 = minimal control and 100 = complete control.

Green foxtail = test: Test 10 postemergence safety to crops and weed control; type: in vivo, Setaria viridis; conditions: 16 g/ha, scale 0-100
Description: (§1) The object of these tests was to evaluate the compound of this invention for postemergence safety to crops and weed control. Seedling and budded Macedine grapes were grown in 11.4-cm pots. Flax, green foxtail (Setaria viridis), "Morex" barley, wild oats (Avena fatua), "Era" wheat, annual ryegrass (Lolium multiflorum), wild radish (Raphanus raphanistrum), rape, sunflower, chickweed (Stellaria media) and wild buckwheat (Polygonum convolvulus) were seeded in windowsill pots.
(§2) The plants were sprayed postemergence with Compound I in a non-phytotoxic solvent. Plants were visually rated 15 and 27 days after treatment (DAT). Injury and weed control ratings were based on the scale of 0 to 100 where 0 = no effect, 20 minimal control and 100 = complete control.

Common ragweed = test: Test 11 citrus pots, postemergence to the weeds; type: in vivo, Ambrosia artemisiifolia; conditions: Postemergence 32 g/ha, 0.25% X-77 surfactant, scale 0-100
Description: Budded citrus seedlings were planted in 30-liter plastic pots which were also seeded with sandbur, guineagrass, narrowleaf panicum, common ragweed, yellow nutsedge, purple nutsedge and bindweed. Compound I was applied preemergence and postemergence to the weeds. Treatments were sprayed to simulate the trunk-to-trunk herbicide application method used in some citrus groves. The compound was also applied postemergence to weeds grown in windowsill flats. The flats were filled with planting medium and seeded with morningglory (Ipomoea spp.). purple nutsedge (Cyperus rotundus), pigweed (Amaranthus spp.), bindweed (Convolvulus spp.), narrowleaf panicum (Panicum maximum), common ragweed (Ambrosia artemisiifolia), sandbur (Cenchrus echinatus), itchgrass (Rottboellia exaltata), johnsongrass (Sorghum halepense), guineagrass (Panicum maximum), smooth crabgrass (Digitaria ischaemum), broadleaf signalgrass (Brachiaria platyphylla), bermudagrass (Cynodon dactylon), goosegrass (Eleusine indica), large crabgrass (Digitaria sanguinalis) and yellow nutsedge (Cyperus esculentus).
The compound was formulated and sprayed with 0.25% X-77 surfactant in water. Plants were visually rated 21 and 29 days after treatment and compared with appropriate controls. Injury ratings were based on the scale of 0 to 100, where 0 indicates no effect, 20 indicates minimum effect and 100 indicates complete control. […]

Quackgrass = test: Test 9 postemergence; type: in vivo, Agropyron repens; conditions: scale 0-100
Description: (§3) Plastic windowsill pots containing planting medium were seeded with bahiagrass, bindweed (Convolvulus spp), guinea grass (Panicum maximum), large crabgrass (Digitaria sanguinalis) and pigweed (Amaranthus spp). Individual 15-cm plastic pots contained sandbur (Cenchrus echinatus), Mikania cordata, Boston fern (Nephrolepis exalata), quackgrass (Agropyron repens), elephantgrass (Pennisetum purpureum) and sowthistle (Sonchus spp) plants.
(§4) Plants were treated postemergence with Compound I formulated in a non-phytotoxic solvent. Plants were visually rated 22 days after treatment (DAT). Injury and weed control ratings were based on the scale of 0 to 100 where 0 = no effect, 20 = minimal control and 100 = complete control.

Bahia grass = test: Test 9 postemergence; type: in vivo, bahiagrass; conditions: 16 g/ha, scale 0-100
Description: as §3, §4

Pigweed = test: Test 9 postemergence; type: in vivo, Amaranthus spp; conditions: 16 g/ha, scale 0-100
Description: as §3, §4

Grapes = test: Test 10 postemergence safety to crops and weed control; type: in vivo, Macedine grapes; conditions: scale 0-100
Description: as §1, §2

Pineapple = test: Test 8 postemergence safety to pineapple, turfs and weed control; type: in vivo; conditions: scale 0-100
From the text: (§5) The object of this test was to evaluate the compound of this invention for postemergence safety to pineapple, turfs and weed control. Climax timothy, Kentucky bluegrass, forage fescue, Kentucky fescue, bermudagrass, bentgrass, annual bluegrass, bahiagrass, purple nutsedge, yellow nutsedge, large crabgrass, perennial ryegrass, annual ryegrass, galium and pineapple were sprayed postemergence with the compound in a non-phytotoxic solvent. Plants were visually rated 36 days after treatment (DAT). Injury ratings were based on the scale of 0 to 100 where 0 = no effect, 20 = minimal effect and 100 = complete control.

Kentucky bluegrass = test: as above; type: in vivo; conditions: scale 0-100
From the text: as §5

Kentucky fescue = test: as above; type: in vivo; conditions: scale 0-100
From the text: as §5

Perennial ryegrass = test: as above; type: in vivo; conditions: scale 0-100
From the text: as §5

Yellow nutsedge = test: as above; type: in vivo; conditions: scale 0-100
From the text: as §5

Annual ryegrass = test: as above; type: in vivo; conditions: scale 0-100
From the text: as §5

Bermudagrass = test: as above; type: in vivo; conditions: scale 0-100
From the text: as §5

Climax timothy = test: as above; type: in vivo; conditions: scale 0-100
From the text: as §5

Galium = test: as above; type: in vivo; conditions: scale 0-100
From the text: as §5

Large crabgrass = test: as above; type: in vivo; conditions: scale 0-100
From the text: as §5

Annual bluegrass = test: as above; type: in vivo; conditions: scale 0-100
From the text: as §5

Bentgrass = test: as above; type: in vivo; conditions: scale 0-100
From the text: as §5

Forage fescue = test: as above; type: in vivo; conditions: scale 0-100
From the text: as §5

Bahiagrass = test: as above; type: in vivo; conditions: scale 0-100
From the text: as §5

Purple nutsedge = test: as above; type: in vivo; conditions: scale 0-100
From the text: as §5

Which results are given for `COC(=O)c1cccnc1S(=O)(=O)NC(=O)Nc1nc(OC)cc(OC)n1` [Compound I, 2-[[(4,6-dimethoxypyrimidin-2-yl)aminocarbonyl]aminosulfonyl]-3-pyridinecarboxylic acid, methyl ester]?
Control Rating 17 DAT (Guinea Grass): 70; Plant Injury Rating 15 DAT (Green foxtail): 100; Injury ratings (Common ragweed): 0; Plant Injury Rating 22 DAT (Quackgrass; 8 g/ha): 70; Plant Injury Rating 22 DAT (Quackgrass; 16 g/ha): 90; Plant Injury Rating 22 DAT (Quackgrass; 32 g/ha): 100; Plant Injury Rating 22 DAT (Bahia grass): 40; Plant Injury Rating 22 DAT (Pigweed): 90; Plant Injury Rating 27 DAT (Grapes; Budded grapes, 1 g/ha): 0; Plant Injury Rating 27 DAT (Grapes; Budded grapes, 2 g/ha): 0; Plant Injury Rating 27 DAT (Grapes; Budded grapes, 4 g/ha): 0; Plant Injury Rating 27 DAT (Grapes; Budded grapes, 8 g/ha): 0; Plant Injury Rating 27 DAT (Grapes; Budded grapes, 16 g/ha): 10; Plant Injury Rating 27 DAT (Grapes; Budded grapes, 32 g/ha): 10; Plant Injury Rating 27 DAT (Grapes; Seedling grapes, 1 g/ha): 0; Plant Injury Rating 27 DAT (Grapes; Seedling grapes, 2 g/ha): 0; Plant Injury Rating 27 DAT (Grapes; Seedling grapes, 4 g/ha): 0; Plant Injury Rating 27 DAT (Grapes; Seedling grapes, 8 g/ha): 10; Plant Injury Rating 27 DAT (Grapes; Seedling grapes, 16 g/ha): 20; Plant Injury Rating 27 DAT (Grapes; Seedling grapes, 32 g/ha): 20; Plant Injury Rating 36 DAT (Pineapple; 16 g/ha): 0; Plant Injury Rating 36 DAT (Pineapple; 32 g/ha): 0; Plant Injury Rating 36 DAT (Kentucky bluegrass; 16 g/ha): 100; Plant Injury Rating 36 DAT (Kentucky bluegrass; 32 g/ha): 100; Plant Injury Rating 36 DAT (Kentucky fescue; 16 g/ha): 100; Plant Injury Rating 36 DAT (Kentucky fescue; 32 g/ha): 100; Plant Injury Rating 36 DAT (Perennial ryegrass; 16 g/ha): 100; Plant Injury Rating 36 DAT (Perennial ryegrass; 32 g/ha): 100; Plant Injury Rating 36 DAT (Yellow nutsedge; 16 g/ha): 60; Plant Injury Rating 36 DAT (Yellow nutsedge; 32 g/ha): 100; Plant Injury Rating 36 DAT (Annual ryegrass; 16 g/ha): 100; Plant Injury Rating 36 DAT (Annual ryegrass; 32 g/ha): 100; Plant Injury Rating 36 DAT (Bermudagrass; 16 g/ha): 0; Plant Injury Rating 36 DAT (Bermudagrass; 32 g/ha): 0; Plant Injury Rating 36 DAT (Climax timothy; 16 g/ha): 100; Plant Injury Rating 36 DAT (Climax timothy; 32 g/ha): 100; Plant Injury Rating 36 DAT (Galium; 16 g/ha): 100; Plant Injury Rating 36 DAT (Galium; 32 g/ha): 100; Plant Injury Rating 36 DAT (Large crabgrass; 16 g/ha): 60; Plant Injury Rating 36 DAT (Large crabgrass; 32 g/ha): 80; Plant Injury Rating 36 DAT (Annual bluegrass; 16 g/ha): 100; Plant Injury Rating 36 DAT (Annual bluegrass; 32 g/ha): 100; Plant Injury Rating 36 DAT (Bentgrass; 16 g/ha): 70; Plant Injury Rating 36 DAT (Bentgrass; 32 g/ha): 100; Plant Injury Rating 36 DAT (Forage fescue; 16 g/ha): 100; Plant Injury Rating 36 DAT (Forage fescue; 32 g/ha): 100; Plant Injury Rating 36 DAT (Bahiagrass; 16 g/ha): 70; Plant Injury Rating 36 DAT (Bahiagrass; 32 g/ha): 100; Plant Injury Rating 36 DAT (Purple nutsedge; 16 g/ha): 50; Plant Injury Rating 36 DAT (Purple nutsedge; 32 g/ha): 100
